Measurements from article PMC9331678 (Molecules, 2022).

Columns and labels:
[1] = 24 h therapeutic monitoring and noncompartmental pharmacokinetics in chronic lymphocytic leukemia patients receiving IBR; conditions: plasma; for k el / half-life / MRT last / MRT / Cmax / Tmax / AUCPEO AUC %Extrapolation Obs / AUCPEP AUC %Extrapolation Pred / AUMCIFO AUMC Infinity Obs / AUMCIFP AUMC Infinity Pred / AUMCLST AUMC to Last Nonzero Conc / AUMCPEO AUMC %Extrapolation Obs / AUMCPEP AUMC % Extrapolation Pred / TMAX Time of CMAX: steady state
[2] = population modeling study; cited from earlier work
[3] = Stability in plasma at −70 °C; format: in vitro ADME
[4] = 6 h benchtop (early preanalytical) stability in whole blood and in plasma; format: in vitro ADME, human
Procedure: Six independent plasma samples were processed. The reference solutions were 140 µL acetonitrile-water 4:1 (v/v) mixtures spiked as described above. The mixtures and the reference solutions were subsequently diluted with 90 µL water. Internal standard-corrected matrix factors were calculated as the peak area ratios of the analytes and the internal standards in prepared plasma versus those in a neat solution. In the stability studies, the recoveries of IBR and DIB were calculated as the ratio of the concentrations measured after incubation and those measured at the beginning of the study.
The preanalytical stability of IBR and DIB was evaluated by adding 20 µL methanol solutions containing 500 ng/mL IBR and DIB to two 1.0 mL aliquots of blood freshly drawn into phlebotomy tubes containing K3-EDTA. Three samples, 3 mL each, were taken from three healthy volunteers (manuscript authors G.B.K., I.V. and Z.K.). One of the fractions was centrifuged at 3000 rpm and 10 °C for 10 min immediately after spiking the analytes, and plasma was separated. Both spiked whole blood and the separated plasma were kept at ambient temperature for 6 h. […] Fifty microliters was drawn from the supernatant of the whole blood sample as well as from the plasma, and was processed as described in Section 2.2.

[5] = human, oral, 420 mg, Patient 1, 420 mg IBR per day
[6] = human, oral, 420 mg, Patient 2, 420 mg IBR per day

concentration at 2 h ([1]; human, oral, 420 mg, Conc., subj=2 (420 mg IBR per day), 2 h postdose): 227 nM | k el ([1]; human, oral, 420 mg, LAMZ Lambda z, subj=1 (420 mg IBR per day)): 1.9e-05 s⁻¹ | k el ([1]; human, oral, 420 mg, LAMZ Lambda z, subj=2 (420 mg IBR per day)): 3.6e-05 s⁻¹ | half-life ([1]; human, oral, 420 mg, LAMZHL Half-Life Lambda z, subj=1 (420 mg IBR per day)): 10.1 h | half-life ([1]; human, oral, 420 mg, LAMZHL Half-Life Lambda z, subj=2 (420 mg IBR per day)): 5.35 h | MRT last ([1]; human, oral, 420 mg, MRT0–24, Patient 1, 420 mg IBR per day): 7.07 h | MRT last ([1]; human, oral, 420 mg, MRT0–24, Patient 2, 420 mg IBR per day): 4.6 h | MRT ([1]; human, oral, 420 mg, MRTEVIFO MRT Extravasc Infinity Obs, subj=1 (420 mg IBR per day)): 12.7 h | MRT ([1]; human, oral, 420 mg, MRTEVIFO MRT Extravasc Infinity Obs, subj=2 (420 mg IBR per day)): 5.65 h | MRT ([1]; human, oral, 420 mg, MRTEVIFP MRT Extravasc Infinity Pred, subj=1 (420 mg IBR per day)): 12.9 h | MRT ([1]; human, oral, 420 mg, MRTEVIFP MRT Extravasc Infinity Pred, subj=2 (420 mg IBR per day)): 5.63 h | MRT ([1]; human, oral, 420 mg, MRTEVLST MRT Extravasc to Last Nonzero Conc, subj=1 (420 mg IBR per day)): 7.07 h | MRT ([1]; human, oral, 420 mg, MRTEVLST MRT Extravasc to Last Nonzero Conc, subj=2 (420 mg IBR per day)): 4.6 h | Cmax [1, 5]: 185 nM | Cmax [1, 6]: 254 nM | k el ([1]; human, oral, 420 mg, ke, Patient 1, 420 mg IBR per day): 1.92e-05 s⁻¹ | k el ([1]; human, oral, 420 mg, ke, Patient 2, 420 mg IBR per day): 3.61e-05 s⁻¹ | half-life ([1]; human, oral, 420 mg, t1/2, Patient 1, 420 mg IBR per day): 10.1 h | half-life ([1]; human, oral, 420 mg, t1/2, Patient 2, 420 mg IBR per day): 5.35 h | Tmax [1, 5]: 2 h | Tmax [1, 6]: 1 h | concentration at 4 h ([1]; human, oral, 420 mg/day, Conc., subj=2 (420 mg IBR per day), 4 h postdose): 172 nM | concentration at 23 h ([1]; human, oral, 420 mg/day, Conc., subj=2 (420 mg IBR per day), 23 h postdose): 14.6 nM | concentration at 24 h ([1]; human, oral, 420 mg/day, Conc., subj=2 (420 mg IBR per day), 24 h postdose): 13.2 nM | AUCPEO AUC %Extrapolation Obs ([1]; subj=1 (420 mg IBR per day)): 17.7444% | AUCPEP AUC %Extrapolation Pred ([1]; subj=1 (420 mg IBR per day)): 18.5268% | AUMCIFO AUMC Infinity Obs ([1]; subj=1 (420 mg IBR per day)): 36155.1204 h2*nmol/L | AUMCIFP AUMC Infinity Pred ([1]; subj=1 (420 mg IBR per day)): 37213.6967 h2*nmol/L | AUMCLST AUMC to Last Nonzero Conc ([1]; subj=1 (420 mg IBR per day)): 16593.9650 h2*nmol/L | AUMCPEO AUMC %Extrapolation Obs ([1]; subj=1 (420 mg IBR per day)): 54.1034% | AUMCPEP AUMC % Extrapolation Pred ([1]; subj=1 (420 mg IBR per day)): 55.4090% | TMAX Time of CMAX ([1]; subj=1 (420 mg IBR per day)): 2.0000 h | AUCPEO AUC %Extrapolation Obs ([1]; subj=2 (420 mg IBR per day)): 3.8711% | AUCPEP AUC %Extrapolation Pred ([1]; subj=2 (420 mg IBR per day)): 3.8177% | AUMCIFO AUMC Infinity Obs ([1]; subj=2 (420 mg IBR per day)): 14854.1469 h2*nmol/L | AUMCIFP AUMC Infinity Pred ([1]; subj=2 (420 mg IBR per day)): 14807.8422 h2*nmol/L | AUMCLST AUMC to Last Nonzero Conc ([1]; subj=2 (420 mg IBR per day)): 11625.7539 h2*nmol/L | AUMCPEO AUMC %Extrapolation Obs ([1]; subj=2 (420 mg IBR per day)): 21.7340% | AUMCPEP AUMC % Extrapolation Pred ([1]; subj=2 (420 mg IBR per day)): 21.4892% | TMAX Time of CMAX ([1]; subj=2 (420 mg IBR per day)): 1.0000 h | AUCPEO AUC %Extrapolation Obs ([1]; subj=3 (280 mg IBR per day)): 4.3920% | AUCPEP AUC %Extrapolation Pred ([1]; subj=3 (280 mg IBR per day)): 4.2856% | AUMCIFO AUMC Infinity Obs ([1]; subj=3 (280 mg IBR per day)): 10834.3795 h2*nmol/L | AUMCIFP AUMC Infinity Pred ([1]; subj=3 (280 mg IBR per day)): 10766.9678 h2*nmol/L | AUMCLST AUMC to Last Nonzero Conc ([1]; subj=3 (280 mg IBR per day)): 8171.9228 h2*nmol/L | AUMCPEO AUMC %Extrapolation Obs ([1]; subj=3 (280 mg IBR per day)): 24.5741% | AUMCPEP AUMC % Extrapolation Pred ([1]; subj=3 (280 mg IBR per day)): 24.1019% | TMAX Time of CMAX ([1]; subj=3 (280 mg IBR per day)): 2.0000 h | time after drug intake at which maximum concentrations were attained ([1]; three chronic lymphocyte leukemia patients): ≤ 2 h | stability in plasma [3]: 3 month | recovery at 9.8 ng/mL ([4]; human, plasma (separated from spiked K3-EDTA whole blood), plasma, ambient temperature (25 °C), up to 6 h, all analyses): ≥ 85% | stability ([4]; whole blood and plasma kept at ambient temperature for 6 h): acceptable for clinical use | cases with recoveries lower than 85% (of fifteen analyses) ([4]; whole blood, ambient temperature (25 °C), up to 6 h): one
SMILES: Nc1ncnc2c1c(-c1ccc(Oc3ccccc3)cc1)nn2[C@@H]1CCCN(C(=O)C(O)CO)C1 (stereo partly drawn) [Dihydrodiol Ibrutinib, 1-[(3R)-3-[4-amino-3-(4-phenoxyphenyl)pyrazolo[3,4-d]pyrimidin-1-yl]piperidin-1-yl]-2,3-dihydroxypropan-1-one]
interindividual variability in the clearance [2]: 51% | intraindividual variability in the clearance [2]: 26%
